Experiment [1] addresses T1, FAAH (Mus musculus (Mouse), UniProt O08914). The experiment can be described thus: Mouse brain proteomes from inhibitor treated mice (oral gavage, sacrificed 4 h after administration, ABPP analysis), FAAH. The experiment is classed as in vivo, mouse (C57Bl/6J). Conditions: 5 mg/kg oral gavage. In a few lines: (§1)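 Mice (wild-type C57Bl/6J) receive inhibitor by oral gavage, e.g. in PEG400/Ethanol/PBS (7/2/1). Each animal is killed 4 h later. Brain proteomes are prepared and analyzed by ABPP, giving % inhibition at 5 mg/kg.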

The target of experiment [2] is T2, MAGL (Mus musculus (Mouse), UniProt O35678). Put plainly: In vitro competitive activity-based protein profiling (mouse brain membrane fraction or cell lysates), MAGL band. Format: biochemical. Conditions: mouse proteome; for inhibition at 1 µM: read-out: MAGL % Inh 1 μM (mouse); for IC50: competitive ABPP. On the procedure: In Vitro Competitive Activity-Based Protein Profiling.
T2 sequence (O35678 whole entry): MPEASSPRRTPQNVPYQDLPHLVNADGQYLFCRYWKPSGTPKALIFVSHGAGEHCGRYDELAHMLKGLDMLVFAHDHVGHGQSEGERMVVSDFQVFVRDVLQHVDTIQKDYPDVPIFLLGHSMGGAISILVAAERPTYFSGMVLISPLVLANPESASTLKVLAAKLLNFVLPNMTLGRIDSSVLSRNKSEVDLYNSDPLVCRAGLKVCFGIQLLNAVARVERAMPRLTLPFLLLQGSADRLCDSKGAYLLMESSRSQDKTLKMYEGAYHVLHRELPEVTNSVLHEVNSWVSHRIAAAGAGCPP
Proteomes (mouse brain membrane fraction or cell lysates) (50 μL, 1.0 mg/mL total protein concentration) were preincubated with varying concentrations of inhibitors at 37° C. After 30 min, FP—Rh (1.0 μL, 50 μM in DMSO) was added and the mixture was incubated for another 30 min at 37° C. Reactions were quenched with SDS loading buffer (50 μL-4×) and run on SDS-PAGE.

Experiment [3] addresses T3, ABHD6 (Mus musculus (Mouse), UniProt Q8R2Y0). Put plainly: In vitro competitive activity-based protein profiling (mouse brain membrane fraction or cell lysates), ABHD6 band. The experiment is classed as biochemical. The conditions noted are these: mouse proteome; for inhibition at 1 µM: read-out: ABHD6 % Inh 1 μM (mouse); for IC50: competitive ABPP. In a few lines:
(§2)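 Competitive ABPP: proteome 1.0 mg/mL protein + inhibitor, 30 min, 37° C; FP-Rh probe (stock 50 μM in DMSO) added, 30 min, 37° C; SDS quench, SDS-PAGE, fluorescent band intensity read.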

Experiment [4] has as its target T3, ABHD6. The experiment can be described thus: Mouse brain proteomes from inhibitor treated mice (oral gavage, sacrificed 4 h after administration, ABPP analysis), ABHD6. The conditions noted are these: 5 mg/kg oral gavage. The experiment is classed as in vivo, mouse (C57Bl/6J). In outline: as §1
Experiment [5] addresses T1, FAAH. The experiment can be described thus: In vitro competitive activity-based protein profiling (mouse brain membrane fraction or cell lysates), FAAH band. Format: biochemical. The conditions noted are these: mouse proteome; for inhibition at 1 µM: read-out: FAAH % Inh 1 μM (mouse); for IC50: competitive ABPP. In a few lines: as §2
Experiment [6] has as its target T2, MAGL. The experiment can be described thus: Mouse brain proteomes from inhibitor treated mice (oral gavage, sacrificed 4 h after administration, ABPP analysis). Format: in vivo, mouse (C57Bl/6J). Conditions: 5 mg/kg oral gavage. In outline: as §1

The structures appear in SMILES notation.

T1 sequence (O08914 whole entry): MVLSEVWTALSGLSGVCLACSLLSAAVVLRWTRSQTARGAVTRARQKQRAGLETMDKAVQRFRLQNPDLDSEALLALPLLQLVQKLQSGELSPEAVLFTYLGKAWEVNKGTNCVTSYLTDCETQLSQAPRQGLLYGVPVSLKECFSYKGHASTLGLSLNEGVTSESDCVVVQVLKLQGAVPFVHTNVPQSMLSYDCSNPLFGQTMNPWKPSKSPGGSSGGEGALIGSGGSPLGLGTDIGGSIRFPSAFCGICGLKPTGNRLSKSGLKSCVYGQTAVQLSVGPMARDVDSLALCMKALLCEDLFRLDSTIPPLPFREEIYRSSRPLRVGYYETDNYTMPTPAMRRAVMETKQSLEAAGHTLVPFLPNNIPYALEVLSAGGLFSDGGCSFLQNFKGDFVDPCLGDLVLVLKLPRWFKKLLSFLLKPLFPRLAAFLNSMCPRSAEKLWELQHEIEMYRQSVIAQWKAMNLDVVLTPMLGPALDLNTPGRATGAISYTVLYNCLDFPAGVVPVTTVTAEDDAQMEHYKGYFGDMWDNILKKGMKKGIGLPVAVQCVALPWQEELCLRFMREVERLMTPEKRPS
T3 sequence (Q8R2Y0 whole entry): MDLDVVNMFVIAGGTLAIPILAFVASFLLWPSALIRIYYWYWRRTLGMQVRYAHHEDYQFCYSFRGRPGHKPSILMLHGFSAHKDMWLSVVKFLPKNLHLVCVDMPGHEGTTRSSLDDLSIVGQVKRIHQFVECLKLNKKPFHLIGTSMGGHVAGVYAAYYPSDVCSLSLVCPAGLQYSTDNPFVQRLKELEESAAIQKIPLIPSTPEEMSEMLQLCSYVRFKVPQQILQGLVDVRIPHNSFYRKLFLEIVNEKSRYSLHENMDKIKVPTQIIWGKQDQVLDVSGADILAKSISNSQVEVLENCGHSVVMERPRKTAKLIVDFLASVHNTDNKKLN

For `CCN1CCN(c2cc(C(F)(F)F)ccc2CN2CCCC23CCN(C(=O)OC(C(F)(F)F)C(F)(F)F)CC3)CC1` [Example 87, 1,1,1,3,3,3-Hexafluoropropan-2-yl 1-(2-(4-ethylpiperazin-1-yl)-4-(trifluoromethyl)benzyl)-1,8-diazaspiro[4.5]decane-8-carboxylate], the “FAAH % Inh 5 mg/kg (mouse)” value in experiment [1] is reported as “# (# is <25%)”. In addition, the inhibition at 1 µM in experiment [2] is over 75%; in experiment [3] it was under 25%; in experiment [5], under 25%. Besides, the half-inhibitory concentration (IC50) is under 100 nM in experiment [2], over 1000 nM in experiment [3] and over 1000 nM in experiment [5]. Moreover, the “ABHD6 % Inh 5 mg/kg (mouse)” value in experiment [4] is recorded as “# (# is <25%)”. Besides, the “MAGL % Inh 5 mg/kg (mouse)” value in experiment [6] is recorded as “## (## is equal to or greater than 25% but less than 75%)”.
Consider `CC(=O)N1CCN(c2cc(C(F)(F)F)ccc2CN2CCCC23CCN(C(=O)OC(C(F)(F)F)C(F)(F)F)CC3)CC1` [Example 88, 1,1,1,3,3,3-Hexafluoropropan-2-yl 1-(2-(4-acetylpiperazin-1-yl)-4-(trifluoromethyl)benzyl)-1,8-diazaspiro[4.5]decane-8-carboxylate], for which the “FAAH % Inh 5 mg/kg (mouse)” value in experiment [1] is recorded as “# (# is <25%)”. Moreover, the inhibition at 1 µM in experiment [2] is over 75%; in experiment [3], under 25%; in experiment [5], under 25%. Besides, the figures for the IC50 in experiment [2], in experiment [3] and in experiment [5] were under 100 nM, over 1000 nM and over 1000 nM, respectively. In addition, in experiment [4], the “ABHD6 % Inh 5 mg/kg (mouse)” value was “# (# is <25%)”. The “MAGL % Inh 5 mg/kg (mouse)” value in experiment [6] was “## (## is equal to or greater than 25% but less than 75%)”.
Consider `CS(=O)(=O)N1CCN(c2cc(C(F)(F)F)ccc2CN2CCCC23CCN(C(=O)OC(C(F)(F)F)C(F)(F)F)CC3)CC1` [Example 89, 1,1,1,3,3,3-Hexafluoropropan-2-yl 1-(2-(4-(methylsulfonyl)piperazin-1-yl)-4-(trifluoromethyl)benzyl)-1,8-diazaspiro[4.5]decane-8-carboxylate], for which the “FAAH % Inh 5 mg/kg (mouse)” value in experiment [1] is recorded as “# (# is <25%)”. The figures for the inhibition at 1 µM in experiment [2], in experiment [3] and in experiment [5] were over 75%, under 25% and under 25%, respectively. The concentration for half-maximal inhibition (IC50) in experiment [2] is under 100 nM; in experiment [3], over 1000 nM; in experiment [5], over 1000 nM. Also, the “ABHD6 % Inh 5 mg/kg (mouse)” value in experiment [4] is “# (# is <25%)”. In addition, the “MAGL % Inh 5 mg/kg (mouse)” value in experiment [6] is reported as “# (# is <25%)”.
With `O=C(OC(C(F)(F)F)C(F)(F)F)N1CCC2(CCCN2Cc2ccc(C(F)(F)F)cc2N2CCC(F)(F)CC2)CC1` [Example 90, 1,1,1,3,3,3-Hexafluoropropan-2-yl 1-(2-(4,4-difluoropiperidin-1-yl)-4-(trifluoromethyl)benzyl)-1,8-diazaspiro[4.5]decane-8-carboxylate], the “FAAH % Inh 5 mg/kg (mouse)” value in experiment [1] is reported as “# (# is <25%)”. Further, the inhibition at 1 µM was over 75% in experiment [2], under 25% in experiment [3] and under 25% in experiment [5]. Further, the concentration for half-maximal inhibition (IC50) in experiment [2] was under 100 nM; in experiment [3], over 1000 nM; in experiment [5], over 1000 nM. Also, the “ABHD6 % Inh 5 mg/kg (mouse)” value in experiment [4] is “# (# is <25%)”. For the same molecule, the “MAGL % Inh 5 mg/kg (mouse)” value in experiment [6] was “## (## is equal to or greater than 25% but less than 75%)”.
Turning to `O=C(OC(C(F)(F)F)C(F)(F)F)N1CCC2(CCCN2Cc2ccc(C(F)(F)F)cc2N2CCC(F)CC2)CC1` [Example 91, 1,1,1,3,3,3-Hexafluoropropan-2-yl 1-(2-(4-fluoropiperidin-1-yl)-4-(trifluoromethyl)benzyl)-1,8-diazaspiro[4.5]decane-8-carboxylate], in experiment [1], the “FAAH % Inh 5 mg/kg (mouse)” value was “# (# is <25%)”. The results for the inhibition at 1 µM in experiment [2], in experiment [3] and in experiment [5] were over 75%, under 25% and under 25%, respectively. Besides, the 50% inhibitory concentration (IC50) was under 100 nM in experiment [2], over 1000 nM in experiment [3] and over 1000 nM in experiment [5]. The “ABHD6 % Inh 5 mg/kg (mouse)” value in experiment [4] is “# (# is <25%)”. Moreover, the “MAGL % Inh 5 mg/kg (mouse)” value in experiment [6] is given as “### (### is ≥75%)”.
Regarding `CC(=O)NC1CCN(c2cc(C(F)(F)F)ccc2CN2CCCC23CCN(C(=O)OC(C(F)(F)F)C(F)(F)F)CC3)CC1` [Example 93, 1,1,1,3,3,3-Hexafluoropropan-2-yl 1-(2-(4-acetamidopiperidin-1-yl)-4-(trifluoromethyl)benzyl)-1,8-diazaspiro[4.5]decane-8-carboxylate], the “FAAH % Inh 5 mg/kg (mouse)” value in experiment [1] is given as “# (# is <25%)”. In addition, the inhibition at 1 µM in experiment [2] was over 75%; in experiment [3], under 25%; in experiment [5], under 25%. The IC50 in experiment [2] is under 100 nM; in experiment [3], over 1000 nM; in experiment [5], over 1000 nM. In experiment [4], the “ABHD6 % Inh 5 mg/kg (mouse)” value is “# (# is <25%)”. In addition, the “MAGL % Inh 5 mg/kg (mouse)” value in experiment [6] is “### (### is ≥75%)”.
As to `CS(=O)(=O)NC1CCN(c2cc(C(F)(F)F)ccc2CN2CCCC23CCN(C(=O)OC(C(F)(F)F)C(F)(F)F)CC3)CC1` [Example 94, 1,1,1,3,3,3-Hexafluoropropan-2-yl 1-(2-(4-(methylsulfonamido)piperidin-1-yl)-4-(trifluoromethyl)benzyl)-1,8-diazaspiro[4.5]decane-8-carboxylate], the “FAAH % Inh 5 mg/kg (mouse)” value in experiment [1] is “# (# is <25%)”. The inhibition at 1 µM in experiment [2] was over 75%; in experiment [3] it was under 25%; in experiment [5], under 25%. For the same molecule, the IC50 is under 100 nM in experiment [2], over 1000 nM in experiment [3] and over 1000 nM in experiment [5]. The “ABHD6 % Inh 5 mg/kg (mouse)” value in experiment [4] is given as “# (# is <25%)”. The “MAGL % Inh 5 mg/kg (mouse)” value in experiment [6] was “# (# is <25%)”.
Take `O=C(OC(C(F)(F)F)C(F)(F)F)N1CCC2(CCCN2Cc2ccc(C(F)(F)F)cc2N2CCC2)CC1` [Example 96, 1,1,1,3,3,3-Hexafluoropropan-2-yl 1-(2-(azetidin-1-yl)-4-(trifluoromethyl)benzyl)-1,8-diazaspiro[4.5]decane-8-carboxylate]: in experiment [1], the “FAAH % Inh 5 mg/kg (mouse)” value is “# (# is <25%)”. For the same molecule, the inhibition at 1 µM was over 75% in experiment [2], under 25% in experiment [3] and under 25% in experiment [5]. Besides, the half-inhibitory concentration (IC50) in experiment [2] is under 100 nM; in experiment [3] it was over 1000 nM; in experiment [5], over 1000 nM. For the same molecule, in experiment [4], the “ABHD6 % Inh 5 mg/kg (mouse)” value is on record as “# (# is <25%)”. For the same molecule, the “MAGL % Inh 5 mg/kg (mouse)” value in experiment [6] is “### (### is ≥75%)”.
Consider `O=C(OC(C(F)(F)F)C(F)(F)F)N1CCC2(CCCN2Cc2ccc(C(F)(F)F)cc2N2CC3COCC3C2)CC1` (stereo not drawn) [Example 97, 1,1,1,3,3,3-Hexafluoropropan-2-yl 1-(2-(tetrahydro-1H-furo[3,4-c]pyrrol-5(3H)-yl)-4-(trifluoromethyl)benzyl)-1,8-diazaspiro[4.5]decane-8-carboxylate], for which the “FAAH % Inh 5 mg/kg (mouse)” value in experiment [1] was “# (# is <25%)”. In addition, the results for the inhibition at 1 µM in experiment [2], in experiment [3] and in experiment [5] were over 75%, under 25% and under 25%, respectively. The concentration for half-maximal inhibition (IC50) was under 100 nM in experiment [2], over 1000 nM in experiment [3] and over 1000 nM in experiment [5]. For the same molecule, the “ABHD6 % Inh 5 mg/kg (mouse)” value in experiment [4] is recorded as “# (# is <25%)”. Moreover, the “MAGL % Inh 5 mg/kg (mouse)” value in experiment [6] is recorded as “### (### is ≥75%)”.

Usually IC50 stands for the midpoint of a concentration-inhibition curve. Low values mean greater potency, high ones weaker potency.

For the origin of these results see patent US10030020B2, “Spirocycle compounds and methods of making and using same” (Abide Therapeutics, Inc., priority 2016, dated 2018).
